System: dogs subject to food allergies
Assay: Owner-marked itching scores of dogs subject to food allergies fed with the dog food
Assay type: in vivo
Conditions: case No.1, before feeding with the dog food
Experimental: A dog food (dog food for food allergy) composed of raw materials as listed in Table 3 and Table 4 below was prepared according to the above Example 1. Dogs subject to food allergies were fed with this dog food and then the itching scores of these dogs were determined.
The following 2 cases are described in detail. (a) Detailed description of case No.1 (i) Changes (−1) in itching scores

C[C@]12C=CC(=O)C=C1CC[C@@H]1[C@@H]2[C@@H](O)C[C@@]2(C)[C@H]1CC[C@]2(O)C(=O)CO [predonine]
itching on administration of steroid drug: further suppressed

From patent publication US20070031534A1, “Pet food for reducing food allergy reactions” (priority 2004, published 2007)
